Assay results from patent US9408842B2, “Substituted pyrano and furanoquinolines, their preparation and use as medicaments” (LABORATORIOS DEL DR. ESTEVE S.A., priority 2012, dated 2016).
Structures can show the parent of a compound that is named as a salt.

molecular target: T1, σ1-receptor (Cavia porcellus, UniProt Q60492); experiment: binding assay for the σ1-receptor, [3H]-(+)-pentazocine, brain membranes; settings: guinea pig brain membranes; radioligand [3H]-(+)-pentazocine 5.0 nM; 150 min at 37° C.; nonspecific binding with 1 μM haloperidol
T1 construct: Guinea pig brains were homogenized in 10 vols; (w/v) of Tris-HCl 50 mM 0.32 M sucrose, pH 7.4; from tissue; host or cells: guinea pig brain membranes
T1 sequence (Q60492 whole entry): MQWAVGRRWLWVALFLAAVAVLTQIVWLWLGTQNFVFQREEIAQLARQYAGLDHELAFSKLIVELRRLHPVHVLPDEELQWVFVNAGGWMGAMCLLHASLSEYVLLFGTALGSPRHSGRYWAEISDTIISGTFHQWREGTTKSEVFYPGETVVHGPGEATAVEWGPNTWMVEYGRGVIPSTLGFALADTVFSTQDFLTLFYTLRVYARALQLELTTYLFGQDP
Protocol: Guinea pig brains were homogenized in 10 vols. (w/v) of Tris-HCl 50 mM 0.32 M sucrose, pH 7.4, with a Kinematica Polytron PT 3000 at 15000 r.p.m. for 30 s. The homogenate was centrifuged at 1000 g for 10 min at 4° C. and the supernatants collected and centrifuged again at 48000 g for 15 min at 4° C. The pellet was resuspended in 10 volumes of Tris-HCl buffer (50 mM, pH 7.4), incubated at 37° C. for 30 min, and centrifuged at 48000 g for 20 min at 4° C. Following this, the pellet was re-suspended in fresh Tris-HCl buffer (50 mM, pH 7.4) and stored on ice until use.
The radioligand used was [^3H]-(+)-pentazocine at 5.0 nM and the final volume was 200 μl. The incubation was initiated with the addition of 100 μl of membrane at a final tissue concentration of approximately 5 mg tissue net weight/mL and the incubation time was 150 m. at 37° C. After incubation, the membranes were collected onto pretreated glass fiber filterplate (MultiScreen-FC, Millipore), with polyethylenimine 0.1%. The filters were washed two times with 200 μl of washing buffer (50 mM Tris Cl, pH=7.4) and then 25 μl of Ecoscint H liquid scintillation cocktail were added. […] Nonspecific binding was determined with 1 μM haloperidol.

| Compound | Ki |
| --- | --- |
| Clc1ccc(Oc2ccc3c(c2)[C@H]2OCCC[C@H]2[C@@H](C2CCCCC2)N3)cc1Cl (racemic) [Example 93, (4aSR*,5RS*,10bSR*)-5-cyclohexyl-9-(3,4-dichlorophenoxy)-3,4,4a,5,6,10b-hexahydro-2H-pyrano[3,2-c]quinoline hydrochloride] | 79.3 nM |
| CCCCCc1ccc2c(c1)[C@H]1OCCC[C@H]1[C@@H](C1CCOCC1)N2 (racemic) [Example 63, (4aSR*,5RS*,10bSR*)-9-pentyl-5-(tetrahydro-2H-pyran-4-yl)-3,4,4a,5,6,10b-hexahydro-2H-pyrano[3,2-c]quinoline hydrochloride] | 61.9 nM |
| CCCCCc1ccc2c(c1)[C@H]1OCC[C@H]1[C@@H](C1CCSCC1)N2 (racemic) [Example 95, (3aSR*,4RS*,9bSR*)-8-pentyl-4-tetrahydro-2H-thiopyran-4-yl)-2,3,3a,4,5,9b-hexahydrofuro[3,2-c]quinoline hydrochloride] | 89.1 nM |
| CC(C)CCOc1ccc2c(c1)[C@H]1OCCC[C@H]1[C@@H](C1CCNCC1)N2 (racemic) [Example 100, (4aSR*,5RS*,10bSR*)-9-(isopentyloxy)-5-(piperidin-4-yl)-3,4,4a,5,6,10b-hexahydro-2H-pyrano[3,2-c]quinoline hydrochloride] | 536 nM |
| CC(C)CCOc1ccc2c(c1)[C@H]1OCCC[C@H]1[C@@H](C1CCN(Cc3ccccc3)CC1)N2 (racemic) [Example 6, (4aSR*,5RS*,10bSR*)-5-(1-benzylpiperidin-4-yl)-9-(isopentyloxy)-3,4,4a,5,6,10b-hexahydro-2H-pyrano[3,2-c]quinoline hydrochloride] | 15.1 nM |
| CC(C)CCOc1ccc2c(c1)[C@H]1OCCC[C@H]1[C@@H](C1CCOCC1)N2 (racemic) [Example 101, (4aSR*,5RS*,10bSR*)-9-(isopentyloxy)-5-(tetrahydro-2H-pyran-4-yl)-3,4,4a,5,6,10b-hexahydro-2H-pyrano[3,2-c]quinoline hydrochloride] | 84 nM |
| COc1ccc2c(c1)[C@H]1OCCC[C@H]1[C@@H](C1CCN(Cc3ccc(Cl)cc3)CC1)N2 (racemic) [Example 109, (4aSR*,5RS*,10bSR*)-5-(1-(4-chlorobenzyl)piperidin-4-yl)-9-methoxy-3,4,4a,5,6,10b-hexahydro-2H-pyrano[3,2-c]quinoline hydrochloride] | 27.2 nM |
| CC(C)CCOc1ccc2c(c1)[C@H]1OCCC[C@H]1[C@@H](C1CCOCC1)N2 [Example 114, (4aS,5R,10bS)-9-(isopentyloxy)-5-(tetrahydro-2H-pyran-4-yl)-3,4,4a,5,6,10b-hexahydro-2H-pyrano[3,2-c]quinoline] | 30 nM |

Results, then the molecule that gave them:

| Ki | Compound |
| --- | --- |
| 108 nM | CC(C)CCOc1ccc2c(c1)[C@H]1OCC[C@H]1[C@@H](C1CCCCC1)N2 (racemic) [Example 32, (3aSR*,4RS*,9bSR*)-4-cyclohexyl-8-(isopentyloxy)-2,3,3a,4,5,9b-hexahydrofuro[3,2-c]quinoline hydrochloride] |
| 25.3 nM | NCCCOc1ccc2c(c1)[C@H]1OCC[C@H]1[C@@H](C1CCCCC1)N2 (racemic) [Example 106, 3-((3aSR*,4RS*,9bSR*)-4-cyclohexyl-2,3,3a,4,5,9b-hexahydrofuro[3,2-c]quinolin-8-yloxy)propan-1-amine hydrochloride] |
| 132 nM | CCCCCc1ccc2c(c1)[C@H]1OCCC[C@H]1[C@@H](C1CCCCC1)N2 (racemic) [Example 59, (4aSR*,5RS*,10bSR*)-5-cyclohexyl-9-pentyl-3,4,4a,5,6,10b-hexahydro-2H-pyrano[3,2-c]quinoline] |
| 110 nM | Clc1ccc(Oc2ccc3c(c2)[C@H]2OCC[C@H]2[C@@H](C2CCCCC2)N3)cc1Cl (racemic) [Example 92, (3aSR*,4RS*,9bSR*)-4-cyclohexyl-8-(3,4-dichlorophenoxy)-2,3,3a,4,5,9b-hexahydrofuro[3,2-c]quinoline hydrochloride] |
| 311 nM | c1cc2c(cc1OCCN1CCOCC1)[C@H]1OCCC[C@H]1[C@@H](C1CCCCC1)N2 (racemic) [Example 67, (4aSR*,5RS*,10bSR*)-5-cyclohexyl-9-(2-morpholinoethoxy)-3,4,4a,5,6,10b-hexahydro-2H-pyrano[3,2-c]quinoline] |
| 78.2 nM | Clc1ccc(Oc2ccc3c(c2)[C@H]2OCC[C@H]2[C@@H](C2CCCCC2)N3)cc1 (racemic) [Example 86, (3aSR*,4RS*,9bSR*)-8-(4-chlorophenoxy)-4-cyclohexyl-2,3,3a,4,5,9b-hexahydrofuro[3,2-c]quinoline] |
| 267 nM | Fc1ccc(COc2ccc3c(c2)[C@H]2OCC[C@H]2[C@@H](C2CCCCC2)N3)cc1 (racemic) [Example 91, (3aSR*,4RS*,9bSR*)-4-cyclohexyl-8-(4-fluorobenzyloxy)-2,3,3a,4,5,9b-hexahydrofuro[3,2-c]quinoline hydrochloride] |
| 302 nM | Clc1ccc(Oc2ccc3c(c2)[C@H]2OCC[C@H]2[C@@H](C2CCCCC2)N3)cc1 (racemic) [Example 87, (3aSR*,4RS*,9bSR*)-8-(4-chlorophenoxy)-4-cyclohexyl-2,3,3a,4,5,9b-hexahydrofuro[3,2-c]quinoline hydrochloride] |
| 337 nM | c1cc2c(cc1N1CCOCC1)[C@H]1OCC[C@H]1[C@@H](C1CCCCC1)N2 (racemic) [Example 103, (3aSR*,4RS*,9bSR*)-4-cyclohexyl-8-morpholino-2,3,3a,4,5,9b-hexahydrofuro[3,2-c]quinoline hydrochloride] |
| 42.6 nM | CCCCCc1ccc2c(c1)[C@H]1OCCC[C@H]1[C@@H](C1CCCCC1)N2 (racemic) [Example 60, (4aSR*,5RS*,10bSR*)-5-cyclohexyl-9-pentyl-3,4,4a,5,6,10b-hexhaydro-2H-pyrano[3,2-c]quinoline hydrochloride] |
